Measurements from patent US9314474B2, “Formulations of 14-epi-analogues of vitamin D” (HYBRIGENICS, SA, priority 2010, dated 2016).
Read-outs that look alike come from different tables or passages of the source. Values belong to the compound of their own block, whether it stands above or below them.

Columns and labels:
[1] = humans, previously determined; cited from earlier work
[2] = in vivo; cited from earlier work
[3] = Maximal tolerated dose in humans; assay type: in vivo, human; settings: oral
[4] = in vivo
From the text: Inecalcitol is a synthetic derivative of calcitriol, the natural active metabolite of vitamin D3.

[5] = rats; cited from earlier work
[6] = in vivo; cited from earlier work; remark: listed apart in the source
[7] = human volunteers, cited from earlier work
[8] = cynomolgus monkey, in vivo, po
Experimental: Male cynomolgus monkey received a single oral administration of a high dose of inecalcitol (2 mg/kg) in the same volume (5 ml/kg) for each excipient. Blood samples were drawn at the time of administration (To) and 15, 30, 45, 60, 90 minutes, 3, 6, 9 and 24 hours later. Plasma aliquots were prepared on heparinized tubes and unchanged inecalcitol was specifically assayed by HPLC/MS/MS method.

Compound: elocalcitol
maximal tolerated dose [1]: 150 μg per day

Compound: C[C@H](CC#CC(C)(C)O)[C@H]1CC[C@@H]2/C(=C/C=C3C[C@@H](O)C[C@H](O)C3)CCC[C@@]21C [inecalcitol, 19-nor-9,10-seco-14βH-cholesta-5(Z),7(E)-dien-23-ino-1α,3β,25-triol-23-yne]
calcemic effects compared with calcitriol [2]: markedly lower calcemic effects
maximal tolerated dose [3]: 4 mg per day
calcemic activity [4]: very low calcemic activity

Compound: C=C1/C(=C\C=C2/CCC[C@]3(C)[C@@H]([C@H](C)/C=C/C=C/C(O)(CC)CC)CC[C@@H]23)C[C@@H](O)C[C@@H]1O [seocalcitol]
bioavailability, LCT- versus MCT-based formulations [5]: no difference was observed
bioavailability of complex system versus simple solutions in MCT or LCT [6]: without any improvement in bioavailability

Compound: C=C1/C(=C\C=C2/CCC[C@]3(C)[C@@H]([C@H](C)CCCC(C)(C)O)CC[C@@H]23)C[C@@H](O)C[C@@H]1O [calcitriol, 1,25-dihydroxy-cholecalciferol]
maximal tolerated dose [1]: 45 μg once a week

Compound: C=C1CC[C@H](O)C/C1=C/C=C1\CCC[C@]2(C)[C@@H]([C@H](C)CCCC(C)C)CC[C@@H]12 [cholecalciferol]
bioavailability from arachis oil capsules versus MCT capsules ([7]; fasting state): about twice higher
bioavailability from arachis oil capsules versus MCT capsules ([7]; given with a standard meal): no difference was observed

absorption of inecalcitol compared with MCT (in words) [8]: better absorbed
AUC0-24 h (%) ([8]; 2 mg/kg): 132%
Cmax (−fold) ([8]; 2 mg/kg): 3.0 fold
Tmax ([8]; 2 mg/kg): 1.5 h
Compound: Sunflower oil
